Measured values published in patent US7091311B2, “Peptides and compounds that bind to a receptor” (SmithKline Beecham Corporation, priority 1996, dated 2006).
Values joined by “and” are separate entries in the source; they are usually repeats but may differ in a detail not shown here. Equal values may be shown once. Read-outs that look alike come from different tables or passages of the source. Blank lines part the entries; values can stand above or below the compound they belong to.

Columns and labels:
[1] = molecular target: T1, TPO-R (Homo sapiens, UniProt P40238); experiment: competition binding assay: MBP-TPO156 binding to immobilized TPO-R (ELISA); details: read-out: IC50
T1 construct: made in house
T1 sequence (P40238 26-491 limits assumed): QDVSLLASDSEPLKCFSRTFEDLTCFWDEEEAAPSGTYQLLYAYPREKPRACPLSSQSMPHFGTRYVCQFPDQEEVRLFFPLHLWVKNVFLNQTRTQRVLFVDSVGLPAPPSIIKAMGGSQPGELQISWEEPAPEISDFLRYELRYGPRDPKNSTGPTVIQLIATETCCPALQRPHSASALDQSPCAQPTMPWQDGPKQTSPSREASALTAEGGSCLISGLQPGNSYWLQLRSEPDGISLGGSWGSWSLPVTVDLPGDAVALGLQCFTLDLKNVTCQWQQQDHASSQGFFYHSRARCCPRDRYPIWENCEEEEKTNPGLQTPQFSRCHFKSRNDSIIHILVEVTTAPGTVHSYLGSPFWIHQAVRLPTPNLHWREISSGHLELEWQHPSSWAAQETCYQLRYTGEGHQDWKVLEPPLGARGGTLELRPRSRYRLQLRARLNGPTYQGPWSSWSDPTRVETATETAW
Protocol: A variety of methods can be used to evaluate IC50 values. For example, an equilibrium binding ELISA assay, using either MBP-TPO or lacI-peptide tracer, was used to determine whether the peptides inhibit the binding of TPO to the extracellular domain of the TPO receptor. Typically, the IC50 value were determined using the free peptide. The IC50value can be determined using the free peptide, which optionally can be C-terminally amidated, or can be prepared as an ester or other carboxy amide.
Binding affinities of chemically synthesized peptides for TPO-R were measured in a competition binding assay. The wells of a microtiter plate were coated with 1 mg streptavidin, blocked with PBS/1% BSA, followed by 50 ng of biotinylated anti-receptor immobilizing antibody (Ab179). The wells were then treated with a 1:10 dilution of soluble TPO-R harvest. Various concentrations of peptide or peptide mimetic were mixed with a constant amount of a truncated form of TPO consisting of residues 1–156 fused to the C-terminus of maltose binding protein (MBP-TPO156). The peptide MBP-TPO156 mixtures were added to the TPO-R coated wells, incubated for 2 hours at 4° C. and then washed with PBS. The amount of MBP-TPO156 that was bound at equilibrium was measured by adding a rabbit anti-sera directed against MBP, followed by alkaline phosphatase conjugated goat anti-rabbit IgG. The amount of alkaline phosphatase in each well was then determined using standard methods.
The assay is conducted over a range of peptide concentrations and the results are graphed such that the y axis represents the amount of bound MBP-TPO156 and the x axis represents the concentration of peptide or peptide mimetic.

[2] = molecular target: T2, human TPO-R (Homo sapiens, UniProt P40238); experiment: thrombopoietin dependent cell proliferation assay, TPO-R transfected Ba/F3 cells (MTT); format: cell-based
T2 construct: transfected with full length human TPO-R; expressed in transfected cells; host or cells: murine Ba/F3 cells
T2 sequence (P40238 26-635): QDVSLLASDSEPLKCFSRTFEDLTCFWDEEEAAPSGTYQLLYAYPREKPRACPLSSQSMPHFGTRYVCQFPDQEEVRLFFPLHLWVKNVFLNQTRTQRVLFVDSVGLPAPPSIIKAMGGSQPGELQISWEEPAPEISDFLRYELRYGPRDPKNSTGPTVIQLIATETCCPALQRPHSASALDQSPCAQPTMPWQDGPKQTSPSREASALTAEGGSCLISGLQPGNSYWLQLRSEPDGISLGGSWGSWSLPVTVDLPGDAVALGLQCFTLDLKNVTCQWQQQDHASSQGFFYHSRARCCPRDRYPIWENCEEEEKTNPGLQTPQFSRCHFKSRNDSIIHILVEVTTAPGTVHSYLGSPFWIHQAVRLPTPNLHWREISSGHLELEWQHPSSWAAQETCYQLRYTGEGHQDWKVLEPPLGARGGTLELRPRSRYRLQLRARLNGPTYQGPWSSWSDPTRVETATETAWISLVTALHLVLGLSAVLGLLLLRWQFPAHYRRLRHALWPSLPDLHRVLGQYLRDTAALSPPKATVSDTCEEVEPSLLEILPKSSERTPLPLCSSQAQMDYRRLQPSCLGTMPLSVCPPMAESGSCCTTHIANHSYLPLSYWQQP
Protocol: Bioactivity of the peptides can be measured using a thrombopoietin dependent cell proliferation assay. Murine IL-3 dependent Ba/F3 cells were transfected with full length human TPO-R. In the absence of IL-3 (WEHI-3 conditioned media), these cells are dependent on TPO for proliferation.
The cells were grown in complete RPMI-10 media, containing 10% WEHI-3 conditioned media, then washed twice in PBS, resuspended in media which lacked WEHI-3 conditioned media, and added to wells containing dilutions of peptide or TPO at 2×10^4 cells/well. The cells were incubated for 48 hours at 37° C. in a humidified 5% Co2 atmosphere and metabolic activity was assayed by the reduction of MTT to formazan, with absorbance at 570 nm measured on an ELISA plate reader.

[3] = molecular target: T3, TPO receptor (Homo sapiens, UniProt P40238); experiment: microphysiometer assay: rate of acidification of the extracellular medium in response to TPO receptor stimulation; format: cell-based; details: Table 9; read-out: EC50 (nM) Microphys.
T3 sequence (P40238 26-635): T2 sequence (P40238 26-635)
Protocol: In this example cyclized compounds were subjected to three assays. […] Finally, a microphysiometer (Molecular Devices Corp.) assay was performed. […] The ranges for EC50 are symbolically indicated as for IC50 described above.

[4] = system: marrow cells; experiment: mouse marrow cells in liquid culture, AChE-staining megakaryocytes; format: cell-based, Balb/C mice
Protocol: To assess the feasibility of mice as a convenient test species, several in vitro experiments, designed to measure the activity of the test compounds on the mouse receptor, have been done. First, marrow cells, harvested from the femurs of 8 to 9 week one Balb/C mice, were incubated for 7 days in liquid culture with either rhuTPO or various concentrations of the test peptides. At the end of the incubation period, the cultures were concentrated by Cytospin, stained for acetylcholinesterase (AChE, a diagnostic of mouse megakaryocytes), and counted by microscopic analysis. One (1) nM rhuTPO gave rise to the outgrowth of very large (>40 um) non-adherent cells that stain for AChE. These cells appear to be mature megakaryocytes. From an initial seeding of 10^6 total marrow cells/ml (in 50 ml cultures) an estimated 1 to 2×10^6 megakaryocytes developed. This response to TPO was designated as “maximal”. Control cultures containing no added growth factors produced very few AChE-positive cells. […] This finding was the first evidence that this peptide family is active on the murine receptor. In a second experiment, marrow cells were harvested and cultured in semi-solid medium (methylcellulose) containing either no factors, 1 nM rhuTPO, or 10 uM Peptide A. After 7 days in culture, colonies of large cell (presumed to be megakaryocytes) were counted and grouped into small colonies (3–5 cells) or large colonies (greater than 6 cells). TPO and the test peptides both produced substantially more colonies of both sized than did the negative control cultures.

[5] = system: marrow cells; experiment: marrow cells in semi-solid medium (methylcellulose), colonies of large cells; format: cell-based, Balb/C mice; details: 1 nM TPO; 7 days in methylcellulose; replicate cultures
Protocol: To assess the feasibility of mice as a convenient test species, several in vitro experiments, designed to measure the activity of the test compounds on the mouse receptor, have been done. First, marrow cells, harvested from the femurs of 8 to 9 week one Balb/C mice, were incubated for 7 days in liquid culture with either rhuTPO or various concentrations of the test peptides. At the end of the incubation period, the cultures were concentrated by Cytospin, stained for acetylcholinesterase (AChE, a diagnostic of mouse megakaryocytes), and counted by microscopic analysis. One (1) nM rhuTPO gave rise to the outgrowth of very large (>40 um) non-adherent cells that stain for AChE. These cells appear to be mature megakaryocytes. From an initial seeding of 10^6 total marrow cells/ml (in 50 ml cultures) an estimated 1 to 2×10^6 megakaryocytes developed. This response to TPO was designated as “maximal”. Control cultures containing no added growth factors produced very few AChE-positive cells. […] In a second experiment, marrow cells were harvested and cultured in semi-solid medium (methylcellulose) containing either no factors, 1 nM rhuTPO, or 10 uM Peptide A. After 7 days in culture, colonies of large cell (presumed to be megakaryocytes) were counted and grouped into small colonies (3–5 cells) or large colonies (greater than 6 cells). […]

IC50 ([1]; Table 7, dimer compounds): ≤ 0.5 µM
IC50 ([1]; Table 9): ≤ 0.5 µM
EC50 ([2]; Table 9, read-out: EC50 (nM) Prolif.): ≤ 500 nM
EC50 ([2]; Table 10, value outside parentheses, read-out: EC50 (nM) Cell Prolif.): ≤ 500 nM
EC50 [3]: ≤ 500 nM
Compound: CC[C@H](C)[C@H](N)C(=O)N[C@@H](CCC(=O)O)C(=O)NCC(=O)N1CCC[C@H]1C(=O)N[C@H](C(=O)N[C@@H](CC(C)C)C(=O)N[C@@H](CCCNC(=N)N)C(=O)N[C@@H](CCC(N)=O)C(=O)N[C@@H](Cc1c[nH]c2ccccc12)C(=O)N[C@@H](CC(C)C)C(=O)N[C@@H](C)C(=O)N[C@@H](C)C(=O)N[C@@H](CCCNC(=N)N)C(=O)N[C@@H](C)C(=O)NCCCC[C@H](NC(=O)CCNC(=O)[C@H](C)NC(=O)[C@H](CCCNC(=N)N)NC(=O)[C@H](C)NC(=O)[C@H](C)NC(=O)[C@H](CC(C)C)NC(=O)[C@H](Cc1c[nH]c2ccccc12)NC(=O)[C@H](CCC(N)=O)NC(=O)[C@H](CCCNC(=N)N)NC(=O)[C@H](CC(C)C)NC(=O)[C@@H](NC(=O)[C@@H]1CCCN1C(=O)CNC(=O)[C@H](CCC(=O)O)NC(=O)[C@@H](N)[C@@H](C)CC)[C@@H](C)O)C(N)=O)[C@@H](C)O

Compound: S.A. alone: streptavidin alone [reference compound]
Response (AChE-staining megakaryocytes) ([4]; concentration tested 1000 nM (putative 1:4 complex), 7 days, maximal = compared to recombinant human TPO, 25–30% ACE staining cells): none

Compound: TPO (R & D): recombinant human TPO
megakaryocytes developed (estimated) ([4]; 1 nM rhuTPO, initial seeding 10^6 total marrow cells/ml in 50 ml cultures, 7 days): 1 to 2×10^6
Response (AChE-staining megakaryocytes) ([4]; concentration tested 1 nM, 7 days liquid culture): “maximal”
large colonies, 6–12 large cells [5]: 6 and 1 and 8 and 3
small colonies, 3–5 large cells [5]: 15 and 12 and 16 and 13
